Reference: PMC4128814, “A High Throughput Screen Identifies Potent and Selective Inhibitors to Human Epithelial 15-Lipoxygenase-2” (PLoS ONE, 2014)
Where two headings read alike, the source gives them in different places.

Experiments:
[1] = target: T1, 15-LOX-2 (Homo sapiens, UniProt O15296); assay: Lipoxygenase UV-Vis assay, 15-LOX-2; assay type: biochemical; conditions: for inhibition at 25 µM: read-out: % Inhibition at 25 μM; for potency relative to parent compound: 15-LOX-2
T1 construct: His6 (N); made in house
T1 sequence (O15296 1-676): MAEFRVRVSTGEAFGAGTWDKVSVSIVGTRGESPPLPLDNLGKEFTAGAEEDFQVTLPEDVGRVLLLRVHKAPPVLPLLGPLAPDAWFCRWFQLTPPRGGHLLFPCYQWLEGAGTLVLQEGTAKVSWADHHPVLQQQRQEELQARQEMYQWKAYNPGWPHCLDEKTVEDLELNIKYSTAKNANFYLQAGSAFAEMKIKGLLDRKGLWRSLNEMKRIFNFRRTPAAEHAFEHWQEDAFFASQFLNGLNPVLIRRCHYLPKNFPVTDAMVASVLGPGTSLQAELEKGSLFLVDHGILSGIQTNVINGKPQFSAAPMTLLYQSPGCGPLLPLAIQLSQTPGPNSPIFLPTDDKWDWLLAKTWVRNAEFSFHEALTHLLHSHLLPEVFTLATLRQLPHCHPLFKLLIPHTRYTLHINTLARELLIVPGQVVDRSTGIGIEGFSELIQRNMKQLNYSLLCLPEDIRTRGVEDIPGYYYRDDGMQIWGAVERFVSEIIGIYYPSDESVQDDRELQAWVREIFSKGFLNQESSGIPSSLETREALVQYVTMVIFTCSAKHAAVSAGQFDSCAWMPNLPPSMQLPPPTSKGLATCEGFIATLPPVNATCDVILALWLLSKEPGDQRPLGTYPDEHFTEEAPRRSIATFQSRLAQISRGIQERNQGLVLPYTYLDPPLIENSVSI
Description: The reactions were initiated by adding 200 nM 15-LOX-2, 30 nM 12-LOX, 40 nM 15-LOX-1, or approximately 100–300 nM (5–10 µL) of 5-LOX crude extract to a cuvette with 2 mL reaction buffer, constantly stirred using a magnetic stir bar at room temperature (22°C). Reaction buffers used for various LOX isozymes were as follows: 25 mM HEPES (pH 7.3), 0.3 mM CaCl2, 0.1 mM EDTA, 0.2 mM ATP, 0.01% Triton X-100, 10 µM AA for the crude, ammonium sulfate precipitated 5-LOX; and 25 mM HEPES (pH 7.5), 0.01% Triton X-100, 10 µM AA for 15-LOX-2, 15-LOX-1, and 12-LOX. The substrate concentration was quantitatively determined by allowing the enzymatic reaction to go to completion in the presence of 15-LOX-2. […] The data were then plotted against inhibitor concentration, followed by a hyperbolic saturation curve fit (assuming total enzyme concentration [E]≪IC50). […] All inhibitors were stored at −20°C in DMSO. NDGA was utilized as positive control for the selectivity assays for the various LOX isozymes.
Once the two lead compounds were identified, a limited series of related compounds were identified and screened to investigate structure/activity relationships (Figure 3). […] We are currently exploring this line of inquiry.

[2] = target: T1, 15-LOX-2; conditions: control molecules known not to inhibit 15-LOX-2; cited from earlier work
[3] = 25 µM inhibitor, 15-LOX-2, 10 µM AA

Row | SMILES | inhibition at 25 µM [1, 3] | IC50 ([1]; read-out: 15-LOX-2 IC50) | also measured
1 | c1ccc(CSc2ncn(-c3ccccc3)n2)cc1 [MLS000108825] | 56% | 6.4 µM | 
2 | Clc1cccc(CSc2ncn(-c3ccccc3)n2)c1 [MLS000594591] | 65% | 5.4 µM | 
3 | Clc1ccccc1CSc1ncn(-c2ccccc2)n1 [MLS000550113] | 53% | 9 µM | 
4 | Clc1ccc(-c2nnc(CCc3ccccc3)o2)c(Cl)c1 [MLS000325223] | 4% | > 100 µM | 
5 | O=C(c1nnc(-c2ccccc2)o1)C1CC1 [MLS001033918] | 3% | > 100 µM | 
6 | O=[N+]([O-])c1cccc(-c2nnc(C34CC5CC(CC(C5)C3)C4)o2)c1 [MLS000585389] | 14% | > 100 µM | 
7 | O=[N+]([O-])c1cc(-c2nnc(C34CC5CC(CC(C5)C3)C4)o2)cc([N+](=O)[O-])c1 [MLS000544312] |  |  | IC50 [1]: > 100 µM; inhibition at 25 µM [1]: 0%
8 | O=C(c1nnc(-c2ccc(Cl)cc2)o1)C1CCCC1 [MLS001007221] | 66% | 1.1 µM | potency relative to parent compound [1]: comparable activity
9 | Clc1ccc(CSc2ncn(-c3ccccc3)n2)cc1 [MLS000550104] | 94% | 0.74 µM | potency relative to parent compound [1]: approximately 4 fold
10 | CCCc1nnc(-c2ccc(OC)cc2)o1 [MLS000756111] | 0% | > 100 µM | 
11 | CC(=O)Nc1ccc(C(=O)CSc2ncn(-c3ccccc3)n2)cc1 [MLS000108839] | 0% | > 100 µM | 
12 | CCC1CCC(c2nnc(-c3ccc([N+](=O)[O-])cc3)o2)CC1 (stereo not shown) [MLS000723362] | 5% | > 100 µM | 
13 | Cc1ccc(NC(=O)CSc2ncn(-c3ccccc3)n2)cc1C [MLS000594570] | 0% | > 100 µM | 
14 | c1cncc(-c2nnc(C3CCCCC3)o2)c1 [MLS000033229] | 4% | > 100 µM | 
15 | CCC1CCC(c2nnc(-c3ccc(Br)cc3)o2)CC1 (stereo not shown) [MLS000578382] | 28% | > 50 µM | 
16 | CC(=O)NC(c1cccs1)c1cc(Br)c2cccnc2c1O (stereo not shown) [ML127] |  |  | IC50 [2]: > 100 µM
17 | Clc1ccc(-c2nnc(C3CC3)o2)cc1 [MLS000859524] | 4% | > 100 µM | 
18 | O=C(CCc1nnc(-c2ccccc2)o1)c1ccc(Cl)cc1 [MLS001019001] | 6% | > 100 µM | 
